Measured values from patent US12534510B2, “Peptide-receptive MHC-I complex compositions and methods” (priority 2020, dated 2026).

Assays:
[1] = tested on: B4.2.3 TCR transgenic T cell line; assay: Tetramer staining by flow cytometry; type: cell-based, murine; set-up: dose or concentration left out as unconfirmed; details: stoichiometric (1:1) or catalytic (1:100) TAPBPR:MHC ratio
H-2D^d/TAPBPR complex = H-2D^d/TAPBPR complex (Mus musculus, UniProt P01900)
Description: Peptide occupancy of SEC purified MHC-I was determined by HPLC separation on a Higgins PROTO300 C4 column (5 μm, 100 mm×21 mm) followed by electrospray ionisation performed on a Thermo Finnigan LC/MS/MS (LQT) instrument. Peptides were identified by extracting expected m/z ions from the chromatogram and deconvoluting the resulting spectrum in MagTran.

H-2D^d = H-2D^d (Mus musculus, UniProt P01900); details: cited from earlier work
H-2L^d/TAPBPR complex = target: T1, H-2L^d/TAPBPR complex (Mus musculus, UniProt P01897); assay: SEC TAPBPR binding assay with LC-MS peptide occupancy; set-up: species or system murine; details: 10 mM Gly-Phe dipeptide (GF)
T1 construct: Plasmid DNA encoding the luminal domain of class I MHC (MHC-I) heavy chains H-2D^d, HLA-A*02:01, H-2L^d; made in house; Drosophila S2 for TAPBPR
Description: Complexes were resolved on an Superdex 200 10/300 increase column (GE healthcare) at a flow rate of 0.5 mL/min in 100 mM NaCl and 20 mM sodium phosphate pH 7.2 at room temperature. MHC-I/TAPBPR complexes eluted at 26.5 min.

[2] = target: HLA-A*24:02/TAPBPR complex (Homo sapiens, UniProt P04439, D101N/D140Y/D185E/E176V/E190D/F33S/G103R/G107R/I119L/I121M/I306V/K335N/L105A/L180Q/L300P/N151K/N90K/Q86E/Q94H/R106L/R138H/R89G/T104I/T345S/V100E/W191G/Y123F); assay: Native gel dissociation of MHC-I/TAPBPR complex by peptide; type: biochemical; details: HLA-A*24:02 refolded with gNEF, 10-fold molar excess peptide
[3] = nanoDSF melting temperatures; type: physicochemical
Description: In a volume of 20 μl, 1 μM peptide deficient HLA-A*02:01/TAPBPR was incubated with 20 μM of various peptides (FIG. 22) in a buffer of 20 mM sodium phosphate pH 7.2, 100 mM NaCl, 0.02% TWEEN-20 for at least one hour. 10 ul of each sample was loaded on the Prometheus NT.48 instrument (NanoTemper™) using the high sensitivity capillaries. NanoDSF™ measurements are performed using a temperature ramp rate of 1° C./min from 25° C. to 95° C. and an LED intensity of 20%. Data was analyzed using the PR Control software (NanoTemper™). Melting temperatures (Tm values) correspond to the inflection points of the first derivative of the 330/350 nm fluorescence ratio. Experiments were performed in duplicates and the shaded areas (FIG. 17b) are representative of the error.

[4] = target: HLA-A*68:02/TAPBPR complex (Homo sapiens, UniProt P04439, A269V/D140Y/D185E/E176V/E277Q/E87N/F33Y/G231S/I121R/I166T/I218V/L180W/L300P/L318F/N151K/P208A/P217A/Q86R/R138H/R169H/S129P/T345S/V36M); assay: Native gel dissociation of MHC-I/TAPBPR complex by peptide; type: biochemical; details: HLA-A*68:02 refolded with gTAX, 10-fold molar excess peptide

## AGPARAAAL (Sequence is synthesized)
[1]
  tetramer staining: No staining

## GPGRAFVTI [gP18-I10]
H-2D^d/TAPBPR complex
  fate of bound peptide in the presence of TAPBPR: dissociated in the presence of TAPBPR
H-2D^d
  increase in the peptide off-rate relative to full-length P18-I10 peptide: 100 fold

## PNVNIHNF
H-2L^d/TAPBPR complex
  fate of bound peptide in the presence of TAPBPR: remained bound

## QLSPFPFDL [QL9]
H-2L^d/TAPBPR complex
  fate of bound peptide in the presence of TAPBPR: empty H-2L^d/TAPBPR complexes were obtained

## QYNPIRTTF (Sequence is synthesized) [PHOX2B]
[2]
  effect of peptide on MHC-I/TAPBPR complex: complex dissociation

## RYPLTFGWCF (Sequence is synthesized) [Nef134-10]
[2]
  effect of peptide on MHC-I/TAPBPR complex: complex dissociation

## TAPBPR: chaperone protein homologue of Tapasin, luminal domain expressed in Drosophila S2 cells
[3]
  Tm (nanoDSF inflection point): 52.5 °C

## YPNVNIHNF (Sequence is synthesized) [p29, irrelevant, nonspecific peptide used as negative control]
[4]
  effect of peptide on MHC-I/TAPBPR complex: remain bound
[2]
  effect of peptide on MHC-I/TAPBPR complex: remain bound
